20 molecules from patent US20240067931A1, “METHODS AND COMPOSITIONS FOR SMALL MOLECULE BASED PANCREATIC BETA CELL INDUCTION” (Trailhead Biosystems Inc., priority 2022, published 2024) can be followed below.

“Also recorded” adds a separate entry of the source. Peptide text beside a SMILES is read from it.

Holding throughout (format): cell-based, human
For experiment [1], the system named is GCG, SST, PDX1, PAX4, MAFA and NKX2.2. The experiment can be described thus: HD-DoE stage 3 screening, heat map and dynamic profiling of endocrine and beta cell genes. The settings on record: for effect on beta cell state / endocrine fate: heat map FIG. 21, dynamic profiling FIGS. 22-25; for effect on beta cell specific transcription factors / all genes optimized: heat maps FIG. 19 and FIG. 21. An excerpt:
(§1) FIG. 19 Heat map showing descending factor contributions for the induction of INS. The three HD-DoE experiments shown in Example 17 were used for modeling the maximal expression of several other genes, including GCG, SST, PDX1, PAX4, MAFA and NKX2.2, which are indicative of endocrine cell types with a focus on pancreatic beta cells as indicated at the top of the heat map. The relative factor contributions for the activation of these different genes were then used to generate a secondary heat map representative of the gene induction logic and then ranked according to the compound's ability to induce INS. Dark blue colors indicate a high inductive capacity, while dark red colors indicative of a highly repressive capacity for activation of the genes are shown.
(§2) FIG. 21 Heat map showing descending factor contributions for the induction of INS. The four HD-DoE experiments shown in Example 19 were used for modeling the maximal expression of several other genes. These genes were GCG, SST, PDX1, PAX4, MAFA and NKX2.2. These genes are all indicative of endocrine cell types with a focus on the beta cell as indicated at the top of the heatmap. The relative factor contribution for the activation of these different genes were then used to generate a secondary heat map representative of these genes induction logic and then ranked order according to the compounds ability to induce INS. Dark blue indicates high inductive capacity, while dark red is indicative of a highly repressive effect for the activation of the genes shown.
(§3) FIGS. 22-25. Dynamic profiling of endocrine sub-type regulation. One of the HD-DoE experiments shown in Example 19 was analyzed using MODDE software and dynamic profiling of the endocrine products GCG, SST and INS are shown.
To ascertain which factors could potentially favor the beta cell over other endocrine cell types, optimizers for markers of the other endocrine cell types and beta cell specific markers were compared. The relative factor contribution from the different optimizers were compared.
Optimizers for the main pancreatic endocrine hormones and beta cell-specific transcription factors were generated to compare their contribution factors for this series of HD-DoE. Compounds that could selectively favor the differentiation of the beta cell over that of the alpha and delta cells were identified in this manner.

The subject of another experiment is INS. The experiment can be described thus: HD-DoE screening for optimal de novo beta cell induction (stage 3 cultures, 3 day perturbation), INS induction. As to conditions: for factor contribution, induction of INS: Example 19, four HD-DoE panels, FIG. 20; for effect on INS induction: heat map FIG. 21, dynamic profiling FIGS. 22-25. The method, then: FIG. 18 HD-DoE screening for optimal de novo beta cell induction. Culture of the iPSC cell line CR01 were differentiated to a DFE state for 3 days. These cultures were then incubated in the presence of stage 2 media for an additional 3 days. These cultures were then incubated for an additional 5 days in the presence of GSI-XX and A8301 followed by a 3 day incubation in the presence of a perturbation matrix composed of the compounds indicated in the different panels. This was performed 3 separate times (once for each of the 3 panels). These HD-DoE experiments were then analyzed using MODDE software for maximal induction of insulin. The predicted results are shown.
FIG. 20 HD-DoE screening for optimal de novo beta cell induction. Cultures of the iPSC cell line CR01 were differentiated to a DFE state for 3 days. These cultures were then incubated in the presence of stage 2 media for an additional 3 days. These cultures were then incubated for an additional 5 days in the presence of GSI-XX and A8301 followed by a 3 day incubation in the presence of a perturbation matrix composed of the compounds indicated in the different panels. This was performed 4 separate times (once for each of the 4 panels). These HD-DoE experiments were then analyzed using MODDE software for the maximal induction of Insulin. The predicted results are shown.
as §3
To define factors contributing to the activation of INS, a series of HD-DoE perturbations were performed using factors chosen to target different aspects of beta cell biology.
To define factors contributing to the activation of INS, a series HD-DoE perturbations were performed using factors chosen to target different aspects of beta cell biology.

A further experiment deals with SST (delta cell marker). The experiment can be described thus: HD-DoE stage 3 screening, heat map and dynamic profiling: SST. The settings on record: heat map FIG. 21, dynamic profiling FIGS. 22-25.
Description: as §1, §2, §3

A further experiment concerns GCG (alpha cell marker). The experiment can be described thus: HD-DoE stage 3 screening, heat map and dynamic profiling: GCG. The settings on record: heat map FIG. 21, dynamic profiling FIGS. 22-25.
Description: as §1, §2, §3

The next experiment concerns PDX1. The experiment can be described thus: HD-DoE perturbation matrix on DFE culture, modelling for maximal PDX1 induction. As to conditions: DFE culture, HD-DoE, FIG. 11. An excerpt:
FIG. 11 Modelling for maximal PDX1 induction. Cultures of the iPSC cell line Cr01 was differentiated to a DFE state and then subjected to an HD-DoE perturbation matrix composed of the compounds indicated in the figure. MODDE software was used to predict the optimal condition for maximizing PDX1 activation. Predicted factor additives for this optimization and the relative expression under these conditions for the genes measured are shown.
FIG. 12 Coefficient plots show main effectors for pancreatic progenitor generation from a DFE precursor. Coefficients for the HD-DoE design shown in Example 9 are shown for PDX1 and PTF1A. The co-expression of these two genes is indicative of a pancreatic field.
To determine the best way for inducing a pancreatic fate from a DFE progenitor, a subsequent HD-DoE analysis was performed. Exposing a DFE culture to a perturbation matrix composed of all previously identified effectors shown to have a positive effect on PDX1 activation was used to define optimal conditions for PDX1 induction.

Take `Nc1nc(Nc2ccc3c(c2)CC[C@@H](N2CCCC2)CC3)nn1-c1cc2c(nn1)-c1ccccc1CCC2` [R248]: the “effect on beta cell state / endocrine fate” value in experiment [1] was “strongest inducers of the beta cell state”. The “factor contribution, induction of INS” value in the experiment on INS came out at 22.9.
With `CC(C)Cn1c(=O)n(C)c(=O)c2[nH]cnc21` [IBMX], the “effect on beta cell specific transcription factors / all genes optimized” value in experiment [1] is “beneficial for all genes optimized”.
As to `C[C@H](N)C(=O)N[C@@H](CCC(N)=O)C(=O)O` [glutamax] (H-Ala-Gln-OH), the “effect on SST induction / delta cell fate” value in the experiment with SST (delta cell marker) is reported as “increased induction”. Also, in experiment [1], the “effect on beta cell state / endocrine fate” value is listed as “preferentially favoring the beta cell fate, though to a lesser level; also recorded: positive inducer of endocrine fate; also recorded: increased induction of endocrine fates without total specificity towards the beta cell”. Besides, the “effect on INS induction” value in the experiment with INS is “stronger for INS induction”. In the experiment with GCG (alpha cell marker), the “effect on GCG induction / alpha cell fate” value was “increased induction”.
For FGF19: FGF pathway agonist, the “effect on INS induction” value in the experiment on INS was “contributed to overall INS induction, but to a much smaller degree”.
On to `NCCc1c[nH]c2ccccc12` [tryptamine], for which the “effect on SST induction / delta cell fate” value in the experiment on SST (delta cell marker) is “no effect”. In the experiment with INS, the “factor contribution, induction of INS” value came out at 21.2 and the “effect on INS induction” value is listed as “strongest INS inducing effects”. Besides, in the experiment with GCG (alpha cell marker), the “effect on GCG induction / alpha cell fate” value is “no effect”.
Turning to `CCC(=O)O` [propionate], the “effect on SST induction / delta cell fate” value in the experiment with SST (delta cell marker) was “inhibited”. Besides, in experiment [1], the “effect on beta cell state / endocrine fate” value was “preferentially favoring the beta cell fate, though to a lesser level”. For the same molecule, in the experiment with INS, the “factor contribution, induction of INS” value is on record as 5.3 and the “effect on INS induction” value is “significantly increased INS levels”. Besides, the “effect on GCG induction / alpha cell fate” value with GCG (alpha cell marker) is listed as “inhibited”.
In the case of `NCCc1c[nH]c2ccc(O)cc12` [serotonin], in the experiment with SST (delta cell marker), the “effect on SST induction / delta cell fate” value is listed as “inhibited SST induction”. Besides, in the experiment on GCG (alpha cell marker), the “effect on GCG induction / alpha cell fate” value is given as “strongly activated GCG induction”.
For `Clc1cccc(Cl)c1N=C1NCCN1` [clonidine], the “contribution factor, activation of INS” value with INS (Example 17, three HD-DoE panels, FIG. 18) was 23.4. Besides, the “effect on INS induction” value with INS is “contributed to the induction of INS”.
`CC1=C(/C=C/C(C)=C/C=C/C(C)=C/C(=O)O)C(C)(C)CCC1` [retinoic acid]: the “factor contribution, PDX1 activation” value in the experiment on PDX1 is listed as 19.2.
Still for that read-out and setting: then `Clc1ccc(C2(c3ccc(-c4cn[nH]c4)cc3)CCNCC2)cc1` [AT7867], with 15.5; and `COc1cc(O)c2c(c1)/C=C/C[C@H](O)[C@H](O)C(=O)/C=C\C[C@H](C)OC2=O` [(5Z)-7-oxozeanol, (5Z)-7-Oxozeaenol], with 8.2.
As to obestatin, in the experiment on INS, the “factor contribution, induction of INS” value turned out to be 9.6 and the “effect on INS induction” value is on record as “contributed to the induction of INS”.
With `CC(C)n1nc(C#Cc2ccccc2)c2c(N)ncnc21` [SPP86], in the experiment with INS, the “factor contribution, induction of INS” value is 4.8 and the “effect on INS induction” value is “positive effect on INS induction, though with far less contribution”.
For `Cc1nn(-c2ccccc2)c(C)c1/C=N/N1CCN(Cc2ccccc2)CC1` [SANT1], in the experiment with SST (delta cell marker), the “effect on SST induction / delta cell fate” value was “increased induction”. For the same molecule, in experiment [1], the “effect on beta cell state / endocrine fate” value is listed as “increased induction of endocrine fates without total specificity towards the beta cell”. Moreover, in the experiment on PDX1, the “factor contribution, PDX1 activation” value is on record as 5.0. In addition, in the experiment on INS, the “factor contribution, induction of INS” value was 15.0 and the “effect on INS induction” value is on record as “stronger for INS induction”. Also, the “effect on GCG induction / alpha cell fate” value in the experiment with GCG (alpha cell marker) was “increased induction”.
For the molecule `NC(=O)CC[C@H](N)C(=O)O` [glutamine], in the experiment on INS, the “factor contribution, induction of INS” value is recorded as 10.4.
Turning to `CN(CCOc1ccc(CC2SC(=O)NC2=O)cc1)c1ccccn1` (stereo not drawn) [rosiglitazone], the “factor contribution, induction of INS” value in the experiment with INS worked out at 6.0.
Take `CC1=NS(=O)(=O)c2cc(Cl)ccc2N1` [diazoxide]: the “effect on INS induction” value in the experiment on INS is reported as “positively increased INS induction, though not significantly”.
`C/C(=C\c1ccc(C(=O)O)cc1)c1ccc2c(c1)C(C)(C)CCC2(C)C` [TTNPB]: the “effect on SST induction / delta cell fate” value in the experiment with SST (delta cell marker) was “strongly inhibiting; also recorded: inhibitory”. Further, in experiment [1], the “effect on beta cell state / endocrine fate” value was “strongest inducers of the beta cell state” and the “effect on beta cell specific transcription factors / all genes optimized” value is reported as “strongly activate all beta cell specific transcription factors”. Moreover, the “factor contribution, induction of INS” value in the experiment with INS was found to be 12.7. For the same molecule, the “effect on GCG induction / alpha cell fate” value in the experiment with GCG (alpha cell marker) was “strongly inhibiting; also recorded: inhibitory”.
Turning to `Nc1nc(OC(c2ccc(-c3cccc(F)c3)cc2)C(F)(F)F)cc(-c2ccc(C[C@H](N)C(=O)O)cc2)n1` (stereo partly drawn) [LP533401], in the experiment on INS, the “factor contribution, induction of INS” value is reported as 10.7 and the “effect on INS induction” value was “contributed to the induction of INS”.

B1: Cardiotropin: factor tested in HD-DoE for INS induction (protein, UniProt Q16619 1-201, looked up)
Cardiotrophin-1: MSRREGSLEDPQTDSSVSLLPHLEAKIRQTHSLAHLLTKYAEQLLQEYVQLQGDPFGLPSFSPPRLPVAGLSAPAPSHAGLPVHERLRLDAAALAALPPLLDAVCRRQAELNPRAPRLLRRLEDAARQARALGAAVEALLAALGAANRGPRAEPPAATASAASATGVFPAKVLGLRVCGLYREWLSRTEGDLGQLLPGGSA
With B1, in the experiment with INS, the “effect on INS induction” value is on record as “positively increased INS induction, though not significantly”.
